In BindingDB's records for doi:10.1021/bi0500628 (Merck Research Laboratories, 2005):

Assays:
Insulin receptor = Insulin receptor (Homo sapiens, UniProt P06213); assay: Homogeneous Time-Resolved Fluorescence (HTRF) Assay; settings: pH 7.4; 22 °C
Description: (§1) The assay uses purified enzyme interacting with biotinylated peptide substrate.HTRF is based on the proximity of europium cryptate (donor fluorophore)-labeled antiphosphotyrosine and streptavidin labeled with APC (allophycocyanin), which have been brought together by a binding reaction. When the two entities come into close proximity and upon excitation, energy transfer occurs and APC re-emits at 665 nm. Relative fluorescence units were read on a Discovery plate reader (Packard). The IC50 values for inhibitors were determined by a four-parameter sigmoidal curve fit.

[1] = target: Insulin-like growth factor 1 receptor (Homo sapiens, UniProt P08069); assay: as above; settings: pH 7.4; 22 °C
Description: as §1

Insulin receptor, sequence (P06213 28-758 limits assumed): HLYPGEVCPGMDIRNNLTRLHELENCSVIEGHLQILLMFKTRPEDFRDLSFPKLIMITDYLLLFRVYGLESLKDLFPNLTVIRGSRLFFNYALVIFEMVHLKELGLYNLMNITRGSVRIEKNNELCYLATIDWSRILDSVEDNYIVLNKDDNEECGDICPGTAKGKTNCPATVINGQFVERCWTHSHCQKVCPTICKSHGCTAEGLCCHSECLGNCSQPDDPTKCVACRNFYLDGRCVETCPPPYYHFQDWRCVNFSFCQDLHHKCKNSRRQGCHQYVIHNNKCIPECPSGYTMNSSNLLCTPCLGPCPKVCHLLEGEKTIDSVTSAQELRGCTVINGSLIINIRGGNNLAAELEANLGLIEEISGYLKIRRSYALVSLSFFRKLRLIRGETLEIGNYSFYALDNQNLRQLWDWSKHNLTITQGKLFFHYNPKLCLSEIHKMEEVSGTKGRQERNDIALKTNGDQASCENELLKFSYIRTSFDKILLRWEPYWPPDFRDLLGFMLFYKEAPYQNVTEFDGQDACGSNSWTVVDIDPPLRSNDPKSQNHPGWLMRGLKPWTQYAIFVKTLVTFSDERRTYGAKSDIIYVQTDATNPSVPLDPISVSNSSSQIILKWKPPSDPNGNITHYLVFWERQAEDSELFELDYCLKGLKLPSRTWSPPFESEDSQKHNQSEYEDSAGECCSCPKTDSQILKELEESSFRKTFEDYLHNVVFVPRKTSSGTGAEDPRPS
Insulin receptor, sequence (P06213 763-1382 limits assumed): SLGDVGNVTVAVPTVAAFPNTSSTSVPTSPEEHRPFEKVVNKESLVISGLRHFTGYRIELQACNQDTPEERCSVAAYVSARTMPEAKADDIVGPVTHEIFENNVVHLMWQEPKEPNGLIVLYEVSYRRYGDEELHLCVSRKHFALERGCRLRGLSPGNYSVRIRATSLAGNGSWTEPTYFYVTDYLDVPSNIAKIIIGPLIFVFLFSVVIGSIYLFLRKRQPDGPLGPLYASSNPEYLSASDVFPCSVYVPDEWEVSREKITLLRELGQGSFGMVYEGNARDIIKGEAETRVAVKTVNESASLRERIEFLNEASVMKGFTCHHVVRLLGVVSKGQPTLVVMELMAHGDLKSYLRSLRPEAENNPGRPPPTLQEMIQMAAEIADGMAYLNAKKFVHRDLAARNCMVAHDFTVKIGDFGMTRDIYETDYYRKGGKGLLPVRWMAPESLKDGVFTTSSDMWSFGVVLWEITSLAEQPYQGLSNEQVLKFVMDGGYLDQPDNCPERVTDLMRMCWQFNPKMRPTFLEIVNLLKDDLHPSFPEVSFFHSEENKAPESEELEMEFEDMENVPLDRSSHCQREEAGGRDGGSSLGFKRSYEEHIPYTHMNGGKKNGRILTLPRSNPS
Insulin-like growth factor 1 receptor, sequence (P08069 31-736 limits assumed): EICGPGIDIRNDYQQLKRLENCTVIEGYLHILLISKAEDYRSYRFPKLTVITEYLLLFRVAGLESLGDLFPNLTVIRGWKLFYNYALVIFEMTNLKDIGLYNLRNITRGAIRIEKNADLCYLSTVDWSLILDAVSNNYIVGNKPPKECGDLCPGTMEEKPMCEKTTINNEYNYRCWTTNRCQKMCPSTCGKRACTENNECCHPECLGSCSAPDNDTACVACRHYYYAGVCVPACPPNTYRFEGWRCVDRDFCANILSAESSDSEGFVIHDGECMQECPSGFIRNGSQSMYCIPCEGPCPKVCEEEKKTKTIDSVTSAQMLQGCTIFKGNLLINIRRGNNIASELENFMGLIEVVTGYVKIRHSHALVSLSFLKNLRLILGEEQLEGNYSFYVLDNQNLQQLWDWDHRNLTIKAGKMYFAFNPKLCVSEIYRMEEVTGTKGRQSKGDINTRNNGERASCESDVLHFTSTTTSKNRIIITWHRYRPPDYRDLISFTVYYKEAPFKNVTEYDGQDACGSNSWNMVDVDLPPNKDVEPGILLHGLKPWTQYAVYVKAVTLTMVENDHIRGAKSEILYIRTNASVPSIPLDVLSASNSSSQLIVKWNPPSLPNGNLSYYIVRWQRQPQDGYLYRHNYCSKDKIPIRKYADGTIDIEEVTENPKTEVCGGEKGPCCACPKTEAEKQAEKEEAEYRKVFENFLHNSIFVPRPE
Insulin-like growth factor 1 receptor, sequence (P08069 741-1367 limits assumed): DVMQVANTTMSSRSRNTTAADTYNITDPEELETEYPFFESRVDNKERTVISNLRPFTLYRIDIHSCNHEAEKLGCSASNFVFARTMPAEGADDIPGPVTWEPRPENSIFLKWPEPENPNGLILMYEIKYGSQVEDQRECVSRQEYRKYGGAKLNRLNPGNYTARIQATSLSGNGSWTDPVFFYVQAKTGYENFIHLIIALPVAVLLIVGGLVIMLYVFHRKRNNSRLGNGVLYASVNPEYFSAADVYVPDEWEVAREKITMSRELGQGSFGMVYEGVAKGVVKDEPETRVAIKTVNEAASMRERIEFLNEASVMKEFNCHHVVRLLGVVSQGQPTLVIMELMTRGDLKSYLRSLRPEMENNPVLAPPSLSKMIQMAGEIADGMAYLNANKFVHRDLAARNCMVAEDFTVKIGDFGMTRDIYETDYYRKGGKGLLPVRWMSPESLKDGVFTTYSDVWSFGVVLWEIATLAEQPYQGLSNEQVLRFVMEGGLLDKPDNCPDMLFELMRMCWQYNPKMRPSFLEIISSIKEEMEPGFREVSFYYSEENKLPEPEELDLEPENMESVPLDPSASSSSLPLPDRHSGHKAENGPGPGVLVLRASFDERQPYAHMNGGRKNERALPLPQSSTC

IC50 (Insulin receptor) [µM]	IC50 [1] [µM]	SMILES
5.4	1.1	CCOC(=O)c1[nH]c(C=O)c(C(=O)OCC)c1CC [2,4-diethyl 3-ethyl-5-formyl-1H-pyrrole-2,4-dicarboxylate]
> 100	> 100	CCOC(=O)c1[nH]c(CO)c(C(=O)OCC)c1C [2,4-diethyl 5-(hydroxymethyl)-3-methyl-1H-pyrrole-2,4-dicarboxylate]
12	2.7	CCOC(=O)c1[nH]c(C=O)c(C(=O)OCC)c1C [2,4-diethyl 5-formyl-3-methyl-1H-pyrrole-2,4-dicarboxylate]
12	4.3	CCOC(=O)c1c(CC)c(C(=O)OC(C)(C)C)n(C)c1C=O [2-tert-Butyl 4-Ethyl 3-Ethyl-5-formyl-1-methyl-1H-pyrrole-2,4-dicarboxylate]
2	0.49	CCOC(=O)c1c(C=O)[nH]c(C(=O)OC(C)(C)C)c1CC [2-tert-Butyl 4-Ethyl 3-Ethyl-5-formyl-1H-pyrrole-2,4-dicarboxylate]
> 100	> 100	CCN(CC)C(=O)c1[nH]c(C=O)c(C(=O)N(CC)CC)c1C [N,N,N,N-Tetraethyl-5-formyl-3-methyl-1H-pyrrole-2,4-dicarboxamide]
17	2.6	CCOC(=O)c1c(C=O)[nH]c(C(=O)NC(C)(C)C)c1CC [ethyl 5-(tert-butylcarbamoyl)-4-ethyl-2-formyl-1H-pyrrole-3-carboxylate]

SMILES	IC50 (Insulin receptor) [µM]	IC50 [1] [µM]
COC(=O)[C@]1(O)C[C@@H]2O[C@@]1(C)n1c3ccccc3c3c4c(c5c6ccccc6n2c5c31)C(=O)NC4 [methyl (15R,16S,18S)-16-hydroxy-15-methyl-3-oxo-28-oxa-4,14,19-triazaoctacyclo[12.11.2.1^{15,18}.0^{2,6}.0^{7,27}.0^{8,13}.0^{19,26}.0^{20,25}]octacosa-1(26),2(6),7(27),8(13),9,11,20(25),21,23-nonaene-16-carboxylate]	0.21	0.47
